# Measured values from patent publication US7294643B2, “UK-1 analogues: methods of preparation and use” (Board of Regents, The University of Texas System, priority 2002, dated 2007).
# Where two headings read alike, the source gives them in different places.
# Experiments:
# [1] = system: double-stranded DNA oligonucleotide; assay: DNA binding by ESI-MS; parameters: key: MetalDepend.: all ligand-DNA complex ions also contained a metal ion.; None: no ligand-DNA complex ions observed.; MetalIndepend.: ligand-DNA and ligand-DNA-metal ion complex ions observed; settings: ligand-DNA complex ions, presence or absence of added NiCl2
# [2] = system: Staphylococcus aureus ATCC 29213; assay: Antimicrobial bioassay, S. aureus; format: cell-based; settings: Staphylococcus aureus, ATCC29213
# Procedure: (§1) Antimicrobial Bioassay: Staphylococcus aureus ATCC 29213 and methicillin-resistant S. aureus ATCC 43300 (MRS) were obtained from the American Type Culture Collection (Rockville, Md.) and stored on agar slants at 4° C. until needed. Susceptibility testing was performed using a modified version of the NCCLS methods: “Methods for Dilution Antimicrobial Susceptibility Tests for Bacteria that Grow Aerobically,” M7-A4, Vol. 17, No. 2, NCCLS, (1997) and “Reference Method for Broth Dilution Antifungal Susceptibility Testing of Yeasts; Approved Standard,” M27-A, Vol. 17, No. 9, NCCLS, (1997), both of which are incorporated herein by reference. Microorganisms were subcultured prior to the assay by suspending cells from the slant in Eugon broth (BBL, Maryland) and incubating for 24 hours at 37° C. Inocula were prepared by diluting the subcultured organism in its incubation broth after comparison to the 0.5 McFarland Standard (a BaSO4 suspension) to afford final inocula ranges of S. aureus: 1.0-5.0×10^5 and MRS: 0.2-6.0×10^5 CFU/ml. Test compounds were dissolved in DMSO, serially-diluted using normal saline, and transferred in duplicate to 96 well flat-bottomed microtiter plates. The microbial inocula were added to the samples to achieve a final volume of 200 μl and final compound concentrations starting with 50 μg/ml. Drug [Ciprofloxacin (ICN Biomedicals, Ohio)] as well as growth and blank (media only) controls were added to each test plate. Plates were read at 630 nm using the EL-340 Biokinetics Reader (Bio-Tek Instruments, Vermont) prior to and after incubation at 37° C. for 24 hours. Percent growth was calculated and plotted versus concentration to afford the IC50, or sample concentration that affords 50% growth of the organism relative to controls.
# [3] = alamarBlue cytotoxicity, range over four cell lines; format: cell-based; settings: human
# Procedure: (§2) Cytotoxicity Assays. Cell culture cytotoxicity assays were performed using the. alamarBlue method, as described by Ahmed et al., J. Immun. Methods 1994, 170, 211-224, which is incorporated herein by reference. Briefly, aliquots of 100 μL of cell suspension (1.0-2.5×10^3 cells) was placed in 96-well microtiter plates in an atmosphere of 5% CO2 at 37° C. After 24 hours, 100 μL of culture medium and 2 μL of compound in vehicle (culture media with 40% pyridine) or vehicle alone were added, and the plates incubated an additional 72 hours. […] After the culture media had been removed from each well, 200 μL of fresh media and 20 μL of 90% alamarBlue reagent were added, followed by an additional 6 h incubation. The fluorescent intensity was measured using a Spectrafluor Plus plate reader with excitation at 530 nm and emission at 590 nm.
# [4] = alamarBlue cytotoxicity, range over three cell lines; format: cell-based; settings: human; range of concentrations required to inhibit growth of MCF-7, HT-29, and PC-3 cells by 50%
# Procedure: as §2, with “hours. The final pyridine concentration in all cases was 0.4%; at this pyridine concentration there was no affect on the growth of cells compared to cells in culture media without added pyridine.” for “hours.”, “nm. Results are reported as IC50 values, the average concentration required to produce a decrease of fluorescent intensity of 50% relative to vehicle-treated controls in two separate determinations.” for “nm.”
# [5] = system: methicillin-resistant S. aureus ATCC 43300; assay: Antimicrobial bioassay, methicillin-resistant S. aureus; format: cell-based, Staphylococcus aureus; settings: Staphylococcus aureus, ATCC43300
# Procedure: as §1
# [6] = system: gram-positive or gram negative bacteria; settings: cited from earlier work
# [7] = Metal ion binding by continuous variation, Ca2+; settings: Ca^2+, methanol, 1:1 complex
# Procedure: (§3) Previous work indicated the metal ion binding mechanism of UK-1, so the method of continuous variation was used to determine the ability of selected UK-1analogues to bind a variety of metal ions. Methanolic solutions of UK-1 or UK-1 analogues and metal ion salts [Ca(NO3)2, Mg(NO3)2, Zn(NO3)2, or Fe(NO3)3] at various molar ratios, and 20 μM combined total concentration, were prepared and the absorbance at 418 nm was determined. […] Compound 2.1 does bind with Ca^2+ and Zn^2+ better than UK-1.
# (§4) Continuous variation plots. A 100 μM solution of UK-1 or analogue and 100 AM solutions of Ca(NO3)2, Mg(NO3)2, Zn(NO3)2, or Fe(NO3)3 were prepared in methanol. From these stock solutions, 15 samples (1 mL) of varying mole fraction of the metal ion were prepared at a constant, combined concentration of 20 μM for the ligand and the metal ion. The change in absorbance was monitored from 500 to 200 nm for each sample using as a reference a 1 mL solution containing the same concentration of ligand as the sample being measured but without the metal ion. The maximum absorbance change was typically around 418 nm but varied somewhat for each metal ion. The absorbance at 418 nm was plotted as a function of the mole fraction of the metal ion and the maximum absorbance change was determined. The absorbance of a sample containing the metal ion concentration corresponding to this maximum change and a 15 fold excess of metal ion at this ligand concentration, subtracted from a reference containing the same concentration of ligand but no metal ion was used to normalize the curve and obtain the conditional formation constant as described in the paper to Likussar, W.; Boltz, D. F. Anal. Chem. 1971, 43, 1265-1272, which is incorporated herein by reference.
# [8] = system: HL60 cells; assay: alamarBlue cytotoxicity assay, HL60; format: cell-based, human; settings: Homo sapiens
# Procedure: as §2, with “hours. The final pyridine concentration in all cases was 0.4%; at this pyridine concentration there was no affect on the growth of cells compared to cells in culture media without added pyridine.” for “hours.”, “nm. Results are reported as IC50 values, the average concentration required to produce a decrease of fluorescent intensity of 50% relative to vehicle-treated controls in two separate determinations.” for “nm.”
# [9] = Metal ion binding by continuous variation, Zn2+; settings: for Association constant for metal ion binding: Zn^2+, methanol, 1:1 complex
# Procedure: as §3, §4
# [10] = Metal ion binding by continuous variation, Fe3+; settings: Fe^3+, methanol, 1:1 complex
# Procedure: as §3, §4
# [11] = system: HT-29 cells; assay: alamarBlue cytotoxicity assay, HT-29; format: cell-based; settings: Homo sapiens; HT-29, alamarBlue, 72 h
# Procedure: as §2, with “hours. The final pyridine concentration in all cases was 0.4%; at this pyridine concentration there was no affect on the growth of cells compared to cells in culture media without added pyridine.” for “hours.”, “nm. Results are reported as IC50 values, the average concentration required to produce a decrease of fluorescent intensity of 50% relative to vehicle-treated controls in two separate determinations.” for “nm.”
# [12] = Metal ion binding by continuous variation, Mg2+; settings: for Association constant for metal ion binding: Mg^2+, methanol, 1:1 complex
# Procedure: as §3, §4
# [13] = system: PC-3 cells; assay: alamarBlue cytotoxicity assay, PC-3; format: cell-based, human; settings: Homo sapiens, PC-3, 72 h, PC-3, alamarBlue
# Procedure: as §2, with “hours. The final pyridine concentration in all cases was 0.4%; at this pyridine concentration there was no affect on the growth of cells compared to cells in culture media without added pyridine.” for “hours.”, “nm. Results are reported as IC50 values, the average concentration required to produce a decrease of fluorescent intensity of 50% relative to vehicle-treated controls in two separate determinations.” for “nm.”
# [14] = system: MCF-7 cells; assay: alamarBlue cytotoxicity assay, MCF-7; format: cell-based; settings: Homo sapiens, MCF7; MCF-7, alamarBlue, 72 h
# Procedure: as §2, with “hours. The final pyridine concentration in all cases was 0.4%; at this pyridine concentration there was no affect on the growth of cells compared to cells in culture media without added pyridine.” for “hours.”, “nm. Results are reported as IC50 values, the average concentration required to produce a decrease of fluorescent intensity of 50% relative to vehicle-treated controls in two separate determinations.” for “nm.”
# [15] = system: yeast, or fungi; settings: cited from earlier work
# [16] = system: Cryptococcus neoformans; assay: Antimicrobial bioassay, Cryptococcus neoformans; format: cell-based
# [17] = system: Pseudomonas aeruginosa; assay: Antimicrobial bioassay, P. aeruginosa; format: cell-based; settings: P. aeruginosa
# [18] = system: Candida albicans; assay: Antimicrobial bioassay, Candida albicans; format: cell-based
# [19] = 50% growth of test organism, NA = no activity observed at concentrations up to 50 μg/mL, read-out: Antibacterial IC50 S. aureus
# [20] = 50% growth of test organism, NA = no activity observed at concentrations up to 50 μg/mL, read-out: Antibacterial IC50 Meth-resist S. aureus
# [21] = Methacilline-resistant Staph. Aureus, growth inhibited by 50%, read-out: Staph. aureus IC50
structure (smiles),measurement,setting,value
"O=C(O)c1cccc2oc(-c3ccccc3OCc3ccccc3)nc12 [Compound 2.6, 2-[2-(benzyloxy)phenyl]-1,3-benzoxazole-4-carboxylic acid]",DNA-Binding ESI-MS,[1],MetalIndepend.^f
same,IC50,[2]; [19],43 µM
same,IC50 at 72 h,[3],> 100 µM
same,IC50 at 72 h,[4],> 100 µM
same,IC50,[5]; [20],29 µM
same,IC50,[5]; [21],29 µg/mL
O=C(O)c1cccc2oc(-c3cccc4oc(-c5ccccc5O)nc34)nc12 [DMUK-1],activity against Gram-positive and Gram-negative bacteria,[6],have shown activity
"COC(=O)c1cccc2oc(-c3ccccc3OCc3ccccc3)nc12 [Compound 2.5, Methyl 2-[2-(benzyloxy)phenyl]-1,3-benzoxazole-4-carboxylate]",IC50 at 72 h,[3],> 100 µM
"COC(=O)c1cccc2nc(-c3ccccc3O)oc12 [Compound 2.16, Methyl 2-(2-Hydroxy-phenyl)-benzooxazole-7-carboxylate]",IC50 at 72 h,[3],> 100 µM
"COC(=O)c1cccc2[nH]c(-c3cccc4oc(-c5ccccc5O)nc34)nc12 [Compound 2.1, Methyl 2-[2-(2-hydroxyphenyl)-1,3-benzoxazol-4-yl]-1H-benz imidazole-4-carboxylate]",Association constant for metal ion binding,[7],100000 M⁻¹
same,IC50,"[8]; HL-60, 72 h, HL60, alamarBlue, 72 h",70 µM
same,Association constant for metal ion binding,[9],3.2e+06 M⁻¹
same,Association constant for metal ion binding,[10],10000 M⁻¹
same,IC50,[11],> 100 µM
same,Association constant for metal ion binding,[12],40000 M⁻¹
same,IC50,[13],> 100000 nM
same,IC50,[14],> 100000 nM
same,IC50 at 72 h,[3],≥ 70 µM
COC(=O)c1cccc2oc(-c3cccc4oc(-c5ccccc5OC)nc34)nc12 [MUK-1],activity against yeast and filamentous fungi,[15],active
same,activity against Gram-positive and Gram-negative bacteria,[6],have shown activity
"O=C(O)c1cccc2[nH]c(-c3ccccc3OCc3ccccc3)nc12 [Compound 2.9, 2-[2-(benzyloxy)phenyl]-1H-benzimidazole-4-carboxylic acid]",IC50,[2]; [19],102 µM
same,IC50 at 72 h,[3],> 100 µM
same,IC50,[5]; [20],102 µM
"COC(=O)c1cccc2oc(-c3ccccc3O)nc12 [Compound 2.13, Methyl 2-(2-hydroxyphenyl)-benzoxazole-4-carboxylate]",IC50,[16],> 50 µg/mL
same,DNA-Binding ESI-MS,[1],MetalDepend.^d
same,IC50,[17],> 50 µg/mL
same,IC50,"[2]; S. aureus, read-out: IC50",> 50 µg/mL
same,Association constant for metal ion binding,[7],6300 M⁻¹
same,IC50,"[8]; HL-60, HL60",5.7 µM
same,Association constant for metal ion binding,[9],1.3e+06 M⁻¹
same,Association constant for metal ion binding,[10],7900 M⁻¹
same,IC50,[11],9.1 µM
same,Association constant for metal ion binding,[12],320000 M⁻¹
same,IC50,[18],> 50 µg/mL
same,IC50,[13],880 nM
same,IC50,[14],1500 nM
same,IC50 at 72 h,[3],0.88 to 9.1 µM
same,IC50,[5]; [21],> 50 µg/mL
O=C(O)c1cn(C2CC2)c2cc(N3CCNCC3)c(F)cc2c1=O [Ciprofloxacin],DNA-Binding ESI-MS,[1],MetalIndepend.^f
same,IC50,[2]; [19],0.45 µM
same,IC50 at 72 h,[4],> 100 µM
same,IC50,[5]; [20],0.45 µM
same,IC50,[5]; [21],0.45 µg/mL
"Oc1ccccc1-c1nc2ccccc2o1 [Compound 2.17, 2-(2′-hydroxyphenyl)benzoxazole]",Zn^2+ ion complexation,[9]; result in words,does appear to form complexes with Zn^2+
same,Mg^2+ ion complexation,[12]; result in words,does not appear to complex Mg^2+ ions
same,IC50 at 72 h,[3],> 100 µM
Oc1ccccc1-c1nc2ccccc2o1 [drawing 10],DNA-Binding ESI-MS,[1],None^e
same,IC50 at 72 h,[4],> 100 µM
same,IC50,[5]; [21],> 50 µg/mL
